The values below come from patent publication US20070161592A1, “Method of treating fear” (priority 2005, published 2007).

Molecules are shown by their SMILES.

For assay [1], the system named is pyramidal neurons in layer II/III of ACC slices. The assay is described as follows: LTP induced by pairing training, whole-cell patch-clamp recordings in ACC slices. Format: cell-based, mouse. Here is the method:
Experiments were performed in a recording chamber on the stage of an Axioskop 2FS microscope with infrared DIC optics for visualizing whole-cell patch clamp recordings. EPSCs were recorded from layer II-III neurons using an Axon 200B amplifier (Axon Instruments, CA) and stimulations were delivered using a bipolar tungsten stimulating electrode placed in layer V of the ACC. In hippocampal slices, EPSCs were evoked by stimulating the Schaffer collateral-commissural pathway. EPSCs were induced by repetitive stimulations at 0.02 Hz and neurons were voltage clamped at −70 mV. […] The first protocol involved paired presynaptic 80 pulses at 2 Hz with postsynaptic depolarization at +30 mV (referred to as pairing training). The second involved paired 3 presynaptic stimuli that caused 3 EPSPs (10 ms ahead) with 3 postsynaptic APs at 30 Hz, paired 15 times every 5 s (named as EPSPs-APs protocol). The third involved theta-burst stimulation (5 trains of burst with 4 pulses at 100 Hz, at 200 ms interval; repeated 4 times at intervals of 10 s; named as TBS). The NMDAR-mediated component of EPSCs was pharmacologically isolated in Mg^2+-free ACSF containing: CNQX (20 μM), glycine (1 μM) and picrotoxin (100 μM). […] Neurons were voltage clamped at −60 mV and NMDARs-mediated EPSCs were evoked at 0.05 Hz. Picrotoxin (100 μM) was always present to block GABAA receptor-mediated inhibitory synaptic currents. The access resistance was 15-30 MΩ and was monitored throughout the experiment. […] Results are expressed as means±SEM. Statistical comparisons were performed using the Student t-test.
Whole-cell patch-clamp recordings were conducted in visually identified pyramidal neurons in layer II/III of ACC slices. Pyramidal neurons were identified by injecting depolarized currents into neurons to induce action potentials. […] Pyramidal neurons were also identified based on the pyramid shape of their somata by putting Lucifer yellow into the intracellular solution (FIG. 1A).

Assay [2] relates to NR1/NR2A. The conditions noted are these: cited from earlier work.
Assay [3] concerns NR1/NR2B. The conditions noted are these: cited from earlier work.
Assay [4] deals with NMDAR-mediated signaling. The settings on record: intra-hippocampal injections; cited from earlier work.
The test system of assay [5] is adult ACC neurons. The assay is described as follows: LTP induced by EPSPs-APs protocol in ACC slices. Format: cell-based, mouse. The settings on record: 0.4 μM. Here is the method: (§1) Coronal brain slices ([…]) from 6-8-week-old C57BL/6 mice, containing ACC or hippocampus, were prepared using standard methods (Wei et al., 2001). Slices were transferred to a submerged recovery chamber containing oxygenated (95% O2 and 5% CO2) artificial cerebrospinal fluid (ACSF) (in mM: 124 NaCl, 4.4 KCl, 2 CaCl2, 1 MgSO4, 25 NaHCO3, 1 NaH2PO4, 10 glucose) at room temperature for at least 1 h.
(§2) Experiments were performed in a recording chamber on the stage of an Axioskop 2FS microscope with infrared DIC optics for visualizing whole-cell patch clamp recordings. EPSCs were recorded from layer II-III neurons using an Axon 200B amplifier (Axon Instruments, CA) and stimulations were delivered using a bipolar tungsten stimulating electrode placed in layer V of the ACC. In hippocampal slices, EPSCs were evoked by stimulating the Schaffer collateral-commissural pathway. EPSCs were induced by repetitive stimulations at 0.02 Hz and neurons were voltage clamped at −70 mV. The recording pipettes (3-5 MΩ) were filled with solution containing (mM) 145 K-gluconate, 5 NaCl, 1 MgCl2, 0.2 EGTA, 10 HEPES, 2 Mg-ATP, and 0.1 Na3-GTP (adjusted to pH 7.2 with KOH). After obtaining stable EPSCs for 10 min, three kinds of LTP induction paradigms were used within 12 min after establishing the whole-cell configuration to prevent wash out effect on LTP induction (Tsvetkov et al., 2002). The first protocol involved paired presynaptic 80 pulses at 2 Hz with postsynaptic depolarization at +30 mV (referred to as pairing training). The second involved paired 3 presynaptic stimuli that caused 3 EPSPs (10 ms ahead) with 3 postsynaptic APs at 30 Hz, paired 15 times every 5 s (named as EPSPs-APs protocol). The third involved theta-burst stimulation (5 trains of burst with 4 pulses at 100 Hz, at 200 ms interval; repeated 4 times at intervals of 10 s; named as TBS). The NMDAR-mediated component of EPSCs was pharmacologically isolated in Mg^2+-free ACSF containing: CNQX (20 μM), glycine (1 μM) and picrotoxin (100 μM). The patch electrodes contained (in mM) 102 cesium gluconate, 5 TEA-chloride, 3.7 NaCl, 11 BAPTA, 0.2 EGTA, 20 HEPES, 2 MgATP, 0.3 NaGTP, and 5 QX-314 chloride (adjusted to pH 7.2 with CsOH). Neurons were voltage clamped at −60 mV and NMDARs-mediated EPSCs were evoked at 0.05 Hz. Picrotoxin (100 μM) was always present to block GABAA receptor-mediated inhibitory synaptic currents. The access resistance was 15-30 MΩ and was monitored throughout the experiment. Data were discarded if access resistance changed by more than 15% during an experiment. Results are expressed as means±SEM. Statistical comparisons were performed using the Student t-test. […]

The test system of assay [6] is adult ACC neurons. The assay is described as follows: LTP induced by theta-burst stimulation (TBS) in ACC slices. Format: cell-based, mouse. The conditions noted are these: 0.4 μM. The protocol:
as §1, §2

In assay [7] the test system is NMDAR-mediated currents in the ACC. Description: NMDAR-mediated EPSCs in the ACC. Format: cell-based, mouse. The protocol: as §1
(§3) Experiments were performed in a recording chamber on the stage of an Axioskop 2FS microscope with infrared DIC optics for visualizing whole-cell patch clamp recordings. EPSCs were recorded from layer II-III neurons using an Axon 200B amplifier (Axon Instruments, CA) and stimulations were delivered using a bipolar tungsten stimulating electrode placed in layer V of the ACC. In hippocampal slices, EPSCs were evoked by stimulating the Schaffer collateral-commissural pathway. EPSCs were induced by repetitive stimulations at 0.02 Hz and neurons were voltage clamped at −70 mV. The recording pipettes (3-5 MΩ) were filled with solution containing (mM) 145 K-gluconate, 5 NaCl, 1 MgCl2, 0.2 EGTA, 10 HEPES, 2 Mg-ATP, and 0.1 Na3-GTP (adjusted to pH 7.2 with KOH). After obtaining stable EPSCs for 10 min, three kinds of LTP induction paradigms were used within 12 min after establishing the whole-cell configuration to prevent wash out effect on LTP induction (Tsvetkov et al., 2002). The first protocol involved paired presynaptic 80 pulses at 2 Hz with postsynaptic depolarization at +30 mV (referred to as pairing training). The second involved paired 3 presynaptic stimuli that caused 3 EPSPs (10 ms ahead) with 3 postsynaptic APs at 30 Hz, paired 15 times every 5 s (named as EPSPs-APs protocol). The third involved theta-burst stimulation (5 trains of burst with 4 pulses at 100 Hz, at 200 ms interval; repeated 4 times at intervals of 10 s; named as TBS). The NMDAR-mediated component of EPSCs was pharmacologically isolated in Mg^2+-free ACSF containing: CNQX (20 μM), glycine (1 μM) and picrotoxin (100 μM). The patch electrodes contained (in mM) 102 cesium gluconate, 5 TEA-chloride, 3.7 NaCl, 11 BAPTA, 0.2 EGTA, 20 HEPES, 2 MgATP, 0.3 NaGTP, and 5 QX-314 chloride (adjusted to pH 7.2 with CsOH). Neurons were voltage clamped at −60 mV and NMDARs-mediated EPSCs were evoked at 0.05 Hz. Picrotoxin (100 μM) was always present to block GABAA receptor-mediated inhibitory synaptic currents. The access resistance was 15-30 MΩ and was monitored throughout the experiment. Data were discarded if access resistance changed by more than 15% during an experiment. Results are expressed as means±SEM. Statistical comparisons were performed using the Student t-test.
(§4) One possible mechanism is that NR2B-containing receptors may contribute more to total NMDA currents in ACC synapses than in hippocampal synapses. […] Application of 0.1 μM or 0.4 μM NVP-AAM077 depressed total NMDAR-mediated currents by 59.0±4.3% (n=5) and 63.2±1.7% (n=6) in the ACC respectively (FIG. 5). On the other hand, application of 0.3 μM or 3 μM Ro25-6981 attenuated total NMDAR-mediated currents by 18.0±1.9% (n=5) and 18.1±3.4% (n=7) in the ACC respectively, showing that 0.3 μM Ro25-6981 was sufficient to block the NR2B-mediated currents (FIG. 5). This experiment was repeated in hippocampal CA1 neurons. […] However, unlike in the ACC, application of 0.3 μM Ro25-6981 alone potentiated, rather than blocked, total NMDAR-mediated currents by 51.3±16.4% in the hippocampus (FIG. 5).
The relative percentages of NR2A- and NR2B-mediated currents were determined by applying specific antagonists, NVP-AAM077 (0.4 μM) and Ro25-6981 (0.3 μM). The concentrations used here were based on the results from FIG. 5 and a recent study performed in the hippocampus (Liu et al., 2004). Application of NVP-AAMO77 depressed total NMDAR-mediated currents by 63.2±1.7% and the addition of Ro25-6981 to the same neuron further reduced currents by 13.7±1.4% (n=6) in the ACC (FIG. 6). […]

Assay [8] relates to NMDAR-mediated currents in the hippocampus. The assay is described as follows: NMDAR-mediated EPSCs in hippocampal CA1 neurons. Format: cell-based, mouse. The settings on record: for depression of total NMDAR-mediated currents: hippocampal CA1 neurons. The protocol:
as §1, §3, §4
The same experiment was repeated in the hippocampus.

[9] abbreviates: FIG. 1E/F, BAPTA in the intracellular solution.

`NC(CCCP(=O)(O)O)C(=O)O` (centres unmarked) [AP-5]: in assay [1] (AP-5 50 μM), the “synaptic responses after pairing training (LTP), % of baseline” value (“synaptic responses … % of baseline” below) is 97.8±5.7%. Further, in assay [1] (setting [9]), the “effect on LTP induced by pairing training” value (“effect … by pairing training” for short) is listed as “completely blocked”.

In the case of `CC(C(O)c1ccc(O)cc1)N1CCC(Cc2ccccc2)CC1` (centres unmarked) [ifenprodil], in assay [1] (3 μM), the “synaptic responses … % of baseline” value amounted to 128.1±7.4%. In addition, the “effect … by pairing training” value in assay [1] (3 μM, FIG. 3) was “partially depressed”. In addition, the IC50 in assay [2] is 146 µM; in assay [3], 0.34 µM.

For `C[C@]12N[C@H](Cc3ccccc31)c1ccccc12` [MK-801], the contextual freezing entry in assay [4] is “reduced contextual freezing”.

Consider `C[C@H](NC(c1cccc2[nH]c(=O)c(=O)[nH]c12)P(=O)(O)O)c1ccc(Br)cc1` (some centres unmarked) [NVP-AAM077], for which the “synaptic responses … % of baseline” value in assay [1] (0.1 μM) is 134.9±6.9%; in assay [1] (0.4 μM), 131.6±11.9%. Moreover, the “effect … by pairing training” value is “partially depressed” in assay [1] (0.1 μM, FIG. 3) and “partially depressed” in assay [1] (0.4 μM, FIG. 3). The “potentiation after EPSPs-APs protocol, % of baseline” value in assay [5] is reported as 102.0±11.5%. The “effect on LTP induced by EPSPs-APs protocol” value in assay [5] (FIG. 4C) is “blocked”. Besides, in assay [6], the “LTP after TBS, % of baseline” value is listed as 97.0±13.4%. In addition, the “effect on LTP induced by TBS” value in assay [6] (FIG. 4F) was “blocked”. The “depression of total NMDAR-mediated currents” value in assay [7] (0.1 μM) is 59.0±4.3%; in assay [7] (0.4 μM NVP-AAM077 added after first applying 0.3 μM Ro25-6981), 64.2±3.0%; in assay [7] (0.4 μM, applied alone or first), 63.2±1.7%; in assay [8] (0.1 μM), 54.4±3.2%; in assay [8] (0.4 μM) it was 73.1±1.7%. In addition, the “effect on total NMDAR-mediated currents” value in assay [7] (bath application of different doses, FIG. 5) is “depressed”; in assay [8] (hippocampus, bath application, FIG. 5) it was “depressed”. In addition, the 50% inhibitory concentration (IC50) in assay [2] was 0.014 µM; in assay [3], 1.8 µM.

In the case of `O=C(O)CN(CC(=O)O)c1ccccc1OCCOc1ccccc1N(CC(=O)O)CC(=O)O` [BAPTA], the “synaptic responses … % of baseline” value in assay [1] (11 mM BAPTA in the pipette solution) is listed as 106.1±10.3%. In addition, the “effect … by pairing training” value in assay [1] (setting [9]) is listed as “completely blocked”.

Usually IC50 stands for the concentration that inhibits the measured activity by half.
